From US20040097591A1, “Use of selective progesterone receptor modulators for the treatment of androgen deficiency” (priority 2002, published 2004)

Legend:
testosterone levels = assay: Phase II study of J867: total testosterone levels over 12 weeks; format: in vivo, female subjects; conditions: for mean testosterone concentration increase over the treatment period: 12 week treatment, female subjects aged 18-49
Experimental: (§1) The effect of SPRMs on testosterone levels and SHBG levels was studied using various doses of J867 over three months. The study was a phase II, multi-center, randomized, double blind, parallel group study of J867 at doses of 5 mg, 10 mg, and 25 mg once a day (QD)compared to placebo. Approximately 120 female subjects between the ages of 18 and 49 were enrolled in the study and randomly assigned to one of the four dosing groups above. During the 12 week study, testosterone and SHBG were measured at screening visits during weeks 2, 4, 8, and 12 of the study.
FIG. 1 is a graph showing total testosterone levels as a function of time during the study. […] Testosterone concentrations were relatively constant for the group receiving placebo. […] Over the treatment period, the mean testosterone concentrations for the 5 mg QD group increased approximately 7-15 ng/dL; the mean increase for the 10 mg QD group was approximately 15-21 ng/dL; and the mean concentrations observed following treatment with 25 mg QD increased approximately 16-25 ng/dL.

SHBG levels = assay: Phase II study of J867: SHBG levels over 12 weeks; format: in vivo, female subjects
Experimental: as §1
SHBG levels were also measured at weeks 2, 4, 8, and 12 of the study.

progesterone receptor = molecular target: T1, progesterone receptor (Oryctolagus cuniculus, UniProt P06186); conditions: rabbit model, scale of 0-4; agonistic/antagonistic effect at the progesterone receptor; cited from earlier work
T1 construct: effects of compounds at the progesterone receptor using a rabbit model; from tissue; host or cells: living rabbit (whole-animal model)
T1 sequence (P06186 1-930): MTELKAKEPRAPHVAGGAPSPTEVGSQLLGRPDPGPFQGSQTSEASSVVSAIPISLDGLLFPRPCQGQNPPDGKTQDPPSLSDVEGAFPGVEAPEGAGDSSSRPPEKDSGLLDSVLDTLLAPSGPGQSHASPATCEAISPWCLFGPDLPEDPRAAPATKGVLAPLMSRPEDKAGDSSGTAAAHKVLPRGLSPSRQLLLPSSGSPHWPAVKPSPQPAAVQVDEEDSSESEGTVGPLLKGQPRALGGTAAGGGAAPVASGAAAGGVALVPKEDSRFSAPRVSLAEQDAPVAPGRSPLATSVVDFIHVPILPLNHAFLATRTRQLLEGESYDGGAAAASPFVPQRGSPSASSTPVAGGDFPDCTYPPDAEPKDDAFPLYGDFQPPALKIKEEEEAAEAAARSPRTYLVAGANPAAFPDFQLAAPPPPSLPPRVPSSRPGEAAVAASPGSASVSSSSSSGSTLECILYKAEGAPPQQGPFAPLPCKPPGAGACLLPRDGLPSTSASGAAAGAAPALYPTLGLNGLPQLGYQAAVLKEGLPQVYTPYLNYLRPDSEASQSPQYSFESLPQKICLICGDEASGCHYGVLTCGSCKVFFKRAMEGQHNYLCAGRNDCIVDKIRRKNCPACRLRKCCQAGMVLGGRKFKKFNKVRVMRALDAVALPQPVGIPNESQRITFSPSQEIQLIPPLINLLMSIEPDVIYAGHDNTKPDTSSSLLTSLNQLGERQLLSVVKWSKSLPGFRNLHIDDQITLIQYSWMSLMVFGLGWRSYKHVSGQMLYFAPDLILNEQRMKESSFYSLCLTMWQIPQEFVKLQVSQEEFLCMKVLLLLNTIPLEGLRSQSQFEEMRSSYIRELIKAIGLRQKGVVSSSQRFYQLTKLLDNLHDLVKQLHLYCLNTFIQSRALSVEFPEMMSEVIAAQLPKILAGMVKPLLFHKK

SMILES | mean testosterone concentration increase over the treatment period (testosterone levels; 5 mg QD) [ng/dL] | mean testosterone concentration increase over the treatment period (testosterone levels; 10 mg QD) [ng/dL] | mean testosterone concentration increase over the treatment period (testosterone levels; 25 mg QD) [ng/dL] | total testosterone levels (FIG. 1) (testosterone levels; all doses (5, 10, 25 mg QD)) | visit with largest mean increase of testosterone from baseline (testosterone levels; all three dose groups (5, 10, 25 mg QD)) | testosterone concentrations at the end of the study (testosterone levels; all three dose groups, week 12) | mean level of SHBG during treatment (SHBG levels; 5 mg QD) | mean level of SHBG during treatment (SHBG levels; 10 mg QD) | mean level of SHBG during treatment (SHBG levels; 25 mg QD) | SHBG during the treatment period of three months (FIG. 2) (SHBG levels; weeks 2, 4, 8, 12, doses not separated) | McPhail score (progesterone receptor)
COC[C@]1(OC)CC[C@H]2[C@@H]3CCC4=CC(=O)CCC4=C3[C@@H](c3ccc(/C=N/O)cc3)C[C@@]21C [J867, [4-[17β-Methoxy-17α-(methoxymethyl)-3-oxoestra-4,9-dien-11β-yl]benzaldehyd-(1E)-oxim]] | 7 to 15 | 15 to 21 | 16 to 25 | testosterone levels increased with all doses | week 2 visit | still elevated above baseline | remained relatively constant | decreased from baseline | decreased from baseline | a decrease in SHBG | 
CC#C[C@]1(O)CC[C@H]2[C@@H]3CCC4=CC(=O)CCC4=C3[C@@H](c3ccc(N(C)C)cc3)C[C@@]21C [RU486, mifepristone] |  |  |  |  |  |  |  |  |  |  | less than 0.5
CC(=O)[C@H]1CC[C@H]2[C@@H]3CCC4=CC(=O)CC[C@]4(C)[C@H]3CC[C@]12C [progesterone] |  |  |  |  |  |  |  |  |  |  | 4
